Experimental data reported in US20250289786A1, “CHLORINATED MONOCARBONYL CURCUMIN COMPOUNDS, PREPARATION METHOD, AND APPLICATION” (Southwest Medical University, priority 2024, published 2025).

Tests used:
PC12 cells [1] = assay: Inhibition of corticosterone (CORT)-induced PC12 cell damage; assay type: cell-based, rat; settings: 24 h; for effect on viability of CORT-damaged PC12 cells: 3.75-60 μM drug with 514.6 μM CORT, in words
[2] = ABTS free radical capture ability; assay type: biochemical; settings: 20 min reaction in the dark
Procedure: 66.2 mg of K2S2O8 was weighed and placed in a 100 mL volumetric flask, pure water was added to the scale line to prepare a 2.45 mmol/L K2S2O8 solution. 192 mg of ABTS was accurately weighed and placed in a 25 mL volumetric flask, and the newly prepared K2S2O8 solution was added for dissolving and constant volume dilution, after standing in the dark for 20 h, the ABTS mother liquor was obtained. Before use, to make the measured value more accurate, the ABTS mother liquor needs to be diluted with a PBS solution of pH7.4 until the absorbance range of the ABTS working solution at 734 nm is 0.70±0.02.
Drug concentration screening: To avoid the complete removal of free radicals by excessive drug concentration and the inability to compare the ability to capture ABTS free radicals, a preliminary screening of drug concentration is required before the formal test. A gradient concentration of compound solution was prepared, and a gradient concentration of Vit C solution was prepared as a positive control. A total of 450 μL of ABTS working solution was accurately absorbed into a 1.5 mL EP tube, and 150 μL of the gradient solution of each group of drugs was added, after 20 min of reaction in the dark, 150 μL of the reaction solution was taken and placed in a 96-well plate, the absorbance was measured by a microplate reader. Three duplicate wells were set for each concentration, and the drug concentration with absorbance between 0.2-0.7 was selected for subsequent determination.
Determination operation: After the drug concentration screening was completed, 7 concentration gradient groups were set within this concentration range. A total of 450 μL of ABTS working solution was accurately absorbed into a 1.5 mL EP tube, and 150 μL of the gradient solution of each group of drugs was added. After 20 min of reaction in the dark, 150 μL of the reaction solution was taken and placed in a 96-well plate, the absorbance was measured by a microplate reader. Three duplicate wells were set for each concentration, the positive control group was a gradient solution of Vit C, and the blank control group was an equal volume of anhydrous ethanol.

PC12 cells [3] = assay: MTT toxicity (safety evaluation) on PC12 nerve cells; assay type: cell-based; settings: for cytotoxicity to PC12 cells: 3.75-60 μM, 24 h and 48 h, in words
Procedure: The toxicity of each drug to PC12 cells was determined by MTT assay. The principle of the MTT colorimetric method: there is succinate dehydrogenase in the mitochondria of living cells, which can make exogenous MTT become blue-purple crystal formazan insoluble in water, this phenomenon cannot be observed in dead cells. The blue-purple crystal formazan can be dissolved by DMSO, and the absorbance value is measured by a microplate reader at a wavelength of 490 nm, which in turn reflects the number of living cells. […] The operation method is as follows:
The cells were resuscitated with DMEM high glucose medium containing 10% fetal bovine serum and cultured in a 5% CO2 cell incubator at 37° C., when the cells grew to the logarithmic growth phase, they were inoculated into a 96-well plate and cultured for 24 hours, each well was added with 100 μL of each compound solution at the corresponding gradient concentration (60, 30, 15, 7.5, 3.75 μM), after incubation in the incubator for 24 h or 48 h, 20 μL of MTT was added to continue incubation for 4 h, the supernatant was discarded and 150 μL of DMSO was added to dissolve the blue-purple crystals, after shaking for 10 min, the cell viability was detected by a microplate reader, and classified according to the cytotoxicity standard. The relevant calculation formula is as follows: […]

PC12 cells [4] = assay: Inhibition of H2O2-induced oxidative damage in PC12 cells; assay type: cell-based, rat; settings: for effect on survival of H2O2-damaged PC12 cells: 24 h, in words
Procedure: After 24 hours of incubation in the incubator, the relative proliferation rates of the cells were calculated according to the method under Section 2.1.

[5] = Solubility detection of CAK01-CAK07; assay type: physicochemical
Excerpt: The chlorinated monocarbonyl curcumin compounds CAK01-CAK07 prepared under the conditions of Example 1 were taken for nuclear magnetic resonance, mass spectrometry, solubility, and melting point detection.

Compound	IC50 values of ABTS captured [2] [µg/mL]	Rank (cytotoxicity standard) 24 h (PC12 cells [3]; PC12, 3.75 μM)	Relative growth rate (%) 24 h (PC12 cells [3]; PC12, 3.75 μM) [%]	Rank (cytotoxicity standard) 48 h (PC12 cells [3]; PC12, 3.75 μM)	Relative growth rate (%) 48 h (PC12 cells [3]; PC12, 3.75 μM) [%]	Rank (cytotoxicity standard) 24 h (PC12 cells [3]; PC12, 7.5 μM)	Relative growth rate (%) 24 h (PC12 cells [3]; PC12, 7.5 μM) [%]	Rank (cytotoxicity standard) 48 h (PC12 cells [3]; PC12, 7.5 μM)	Relative growth rate (%) 48 h (PC12 cells [3]; PC12, 7.5 μM) [%]	Rank (cytotoxicity standard) 24 h (PC12 cells [3]; PC12, 15 μM)	Relative growth rate (%) 24 h (PC12 cells [3]; PC12, 15 μM) [%]	Rank (cytotoxicity standard) 48 h (PC12 cells [3]; PC12, 15 μM)	Relative growth rate (%) 48 h (PC12 cells [3]; PC12, 15 μM) [%]	Rank (cytotoxicity standard) 24 h (PC12 cells [3]; PC12, 30 μM)	Relative growth rate (%) 24 h (PC12 cells [3]; PC12, 30 μM) [%]	Rank (cytotoxicity standard) 48 h (PC12 cells [3]; PC12, 30 μM)	Relative growth rate (%) 48 h (PC12 cells [3]; PC12, 30 μM) [%]	Rank (cytotoxicity standard) 24 h (PC12 cells [3]; PC12, 60 μM)	Relative growth rate (%) 24 h (PC12 cells [3]; PC12, 60 μM) [%]	Rank (cytotoxicity standard) 48 h (PC12 cells [3]; PC12, 60 μM)	also measured
O=C1/C(=C/c2cc(Cl)c(O)c(Cl)c2)CNC/C1=C\c1cc(Cl)c(O)c(Cl)c1 [CAK01, 3,5-bis ((E)-3,5-dichloro-4-hydroxybenzylidene) piperidin-4-one]	79.62	0	104.22 ± 1.99	1	99.22 ± 1.65	0	101.17 ± 2.97	0	100.73 ± 3.19	1	99.46 ± 2.16	1	99.33 ± 1.79	0	101.62 ± 3.23	0	100.73 ± 2.88	0	104.04 ± 1.43	1	effect on viability of CORT-damaged PC12 cells (PC12 cells [1]): did not show the potential to restore cell viability; cytotoxicity to PC12 cells (PC12 cells [3]): no significant cytotoxicity; Relative growth rate (%) 48 h (PC12 cells [3]; PC12, 60 μM): 85.41 ± 3.45%; effect on survival of H2O2-damaged PC12 cells (PC12 cells [4]; drug concentration below 30 μM): increased the survival rate of cells in a concentration-dependent manner; solubility [5]: 0.17 mg/100 g
CN1C/C(=C\c2cc(Cl)c(O)c(Cl)c2)C(=O)/C(=C/c2cc(Cl)c(O)c(Cl)c2)C1 [CAK02, 3,5-bis ((E)-3,5-dichloro-4-hydroxybenzylidene)-1-methylpiperidin-4-one]	223.7	0	102.93 ± 1.13	1	98.35 ± 1.84	1	99.40 ± 4.11	0	100.22 ± 3.73	1	95.08 ± 10.06	1	95.22 ± 1.86	1	99.48 ± 1.91	1	97.59 ± 8.36	1	88.18 ± 0.93	1	effect on viability of CORT-damaged PC12 cells (PC12 cells [1]): did not show the potential to restore cell viability; cytotoxicity to PC12 cells (PC12 cells [3]): no significant cytotoxicity; Relative growth rate (%) 48 h (PC12 cells [3]; PC12, 60 μM): 98.48 ± 2.00%; effect on survival of H2O2-damaged PC12 cells (PC12 cells [4]; drug concentration below 30 μM): increased the survival rate of cells in a concentration-dependent manner; solubility [5]: 0.09 mg/100 g
CCN1C/C(=C\c2cc(Cl)c(O)c(Cl)c2)C(=O)/C(=C/c2cc(Cl)c(O)c(Cl)c2)C1 [CAK03, 3,5-bis ((E)-3,5-dichloro-4-hydroxybenzylidene)-1-ethylpiperidin-4-one]	46.56	1	96.25 ± 0.78	1	98.96 ± 1.23	1	87.65 ± 5.86	1	94.59 ± 1.02	1	88.25 ± 5.62	1	89.84 ± 0.82	1	82.96 ± 2.83	1	95.25 ± 9.43	1	77.51 ± 4.22	3	relative cell proliferation rate (PC12 cells [1]; 15 μM drug with 514.6 μM CORT): 59.15±0.51%; relative cell proliferation rate (PC12 cells [1]; 60 μM drug with 514.6 μM CORT): 59.92±1.53%; Relative growth rate (%) 48 h (PC12 cells [3]; PC12, 60 μM): 30.33±6.54%; effect on survival of H2O2-damaged PC12 cells (PC12 cells [4]; drug concentration below 30 μM): increased the survival rate of cells in a concentration-dependent manner; solubility [5]: 0.08 mg/100 g
CC(C)N1C/C(=C\c2cc(Cl)c(O)c(Cl)c2)C(=O)/C(=C/c2cc(Cl)c(O)c(Cl)c2)C1 [CAK04, 3,5-bis ((E)-3,5-dichloro-4-hydroxybenzylidene)-1-isopropylpiperidin-4-one]	57.78	1	98.54 ± 5.42	0	100.97 ± 3.25	1	99.95 ± 5.76	0	100.45 ± 2.96	1	99.06 ± 5.73	1	99.75 ± 1.57	1	99.66 ± 2.34	1	98.02 ± 3.00	0	101.64 ± 3.95	0	effect on viability of CORT-damaged PC12 cells (PC12 cells [1]): did not show the potential to restore cell viability; cytotoxicity to PC12 cells (PC12 cells [3]): no significant cytotoxicity; Relative growth rate (%) 48 h (PC12 cells [3]; PC12, 60 μM): 100.17 ± 2.92%; relative proliferation rate of cells (PC12 cells [4]; 30 μM drug with 585.8 μM H2O2, 24 h): 52.12±0.88%; effect on survival of H2O2-damaged PC12 cells (PC12 cells [4]; drug concentration below 30 μM): increased the survival rate of cells in a concentration-dependent manner; solubility [5]: 0.04 mg/100 g
COc1cc(/C=C2\CN(C(C)C)C/C(=C\c3cc(Cl)c(O)c(OC)c3)C2=O)cc(Cl)c1O [CAK05, 3,5-bis ((E)-3-chloro-4-hydroxy-5-methoxybenzylidene)-1-isopropylpiperidin-4-one]	369.1	1	89.59 ± 2.85	2	61.38±0.91	2	68.98±2.27	2	51.45 ± 1.44	2	62.32 ± 3.54	3	22.26 ± 1.14	2	56.50 ± 1.99	4	15.43 ± 0.32	3	41.84 ± 0.40	4	effect on viability of CORT-damaged PC12 cells (PC12 cells [1]): did not show the potential to restore cell viability; cytotoxicity to PC12 cells (PC12 cells [3]): a great influence on the activity of PC12 cells; Relative growth rate (%) 48 h (PC12 cells [3]; PC12, 60 μM): 11.06 ± 0.87%; effect on survival of H2O2-damaged PC12 cells (PC12 cells [4]; 3.75-60 μM drug): failed to show the potential to restore cell viability; solubility [5]: 0.14 mg/100 g
O=C1O[C@H]([C@@H](O)CO)C(O)=C1O [Vit C, ascorbic acid, reference compound]	54.54																				
